Measurements: ChEMBL document CHEMBL3046073, “Synthesis and cytotoxicity of novel 6H-indolo[2,3-b]quinoxaline derivatives” (2013)

Legend:
Format in all cases: functional
A549 = assay: Cytotoxicity against Homo sapiens (human) A549 cells assessed as cell viability at 10 uM after 72 hr by MTT assay; conditions: A549, 72 h, read-out: Activity
HeLa = assay: Cytotoxicity against Homo sapiens (human) HeLa cells assessed as cell viability at 10 uM after 72 hr by MTT assay; conditions: read-out: Activity
DU-145 = assay: Cytotoxicity against Homo sapiens (human) DU145 cells assessed as cell viability at 10 uM after 72 hr by MTT assay; conditions: DU-145, 72 h, read-out: Activity

Structure (SMILES) | viability at 10 µM (A549) [%] | viability at 10 µM (HeLa) [%] | viability at 10 µM (DU-145) [%]
Clc1cccc(-n2cc(Cn3c4ccccc4c4nc5ccccc5nc43)nn2)c1 | 104 | 77.5 | 77.5
Fc1ccc(-n2cc(Cn3c4ccccc4c4nc5ccccc5nc43)nn2)cc1 | 94.7 | 77.4 | 83.2
FC(F)(F)c1cccc(-n2cc(Cn3c4ccccc4c4nc5ccccc5nc43)nn2)c1 | 83.4 | 76.9 | 76.5
Brc1ccccc1-n1cc(Cn2c3ccccc3c3nc4ccccc4nc32)nn1 | 85.5 | 75.6 | 85.4
Fc1ccc(-n2cc(Cn3c4ccccc4c4nc5ccccc5nc43)nn2)c(F)c1 | 94.7 | 80.7 | 77.4
Fc1cc(-n2cc(Cn3c4ccccc4c4nc5ccccc5nc43)nn2)ccc1Cl | 83.5 | 93.6 | 76.1
Fc1ccc(COc2cccc(-n3cc(Cn4c5ccccc5c5nc6ccccc6nc54)nn3)c2)cc1 | 98.3 | 81.5 | 77.6
Fc1ccc2c(c1)c1nc3ccccc3nc1n2Cc1cn(-c2ccccc2)nn1 | 97.8 | 92 | 72.6
Fc1ccc2c(c1)c1nc3ccccc3nc1n2Cc1cn(-c2cccc(Cl)c2)nn1 | 91.9 | 77.7 | 73.2
Fc1ccc(-n2cc(Cn3c4ccc(F)cc4c4nc5ccccc5nc43)nn2)cc1 | 97.1 | 91.9 | 85
Fc1ccc2c(c1)c1nc3ccccc3nc1n2Cc1cn(-c2cccc(C(F)(F)F)c2)nn1 | 93.7 | 86.4 | 77.5
Fc1ccc2c(c1)c1nc3ccccc3nc1n2Cc1cn(-c2ccccc2Br)nn1 | 94.7 | 89.4 | 90.1
Fc1ccc(-n2cc(Cn3c4ccc(F)cc4c4nc5ccccc5nc43)nn2)c(F)c1 | 87.9 | 86.8 | 77.3
COc1cccc2c1C(=O)c1c(O)c3c(c(O)c1C2=O)C[C@@](O)(C(=O)CO)C[C@@H]3O[C@H]1C[C@H](N)[C@H](O)[C@H](C)O1 [DOXORUBICIN] | 6.33 | 12 | 9
